According to patent US10875874B2, “Ginkgolide B derivative and preparation method and use thereof” (Chengdu Baiyu Ginkgolide Pharmaceuticals Co., Ltd., priority 2015, dated 2020):
≈ marks a conversion by molar mass, not a printed value. Marks after values point to notes of the source that are not given here.

Experiments:
[1] = system: spontaneously hypertensive rats (SHR); test: Caudal artery systolic pressure of spontaneously hypertensive rats, single administration; format: in vivo, rat; conditions: x ± s, n = 8
Summary of the method: (§1)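 SHR rats of both sexes (200–250 g, 8/group) dosed intragastrically with 60 or 120 mg/kg/d, or captopril 27 mg/kg, once daily for 8 weeks; Wistar rats and vehicle SHR served as controls. Tail-cuff systolic pressure taken as the mean of 3 readings, measured before dosing and 30–120 min after the first dose, or 30 min post-dose on days 1–56 for chronic treatment.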

[2] = system: spontaneously hypertensive rats (SHR); test: Caudal artery systolic pressure of spontaneously hypertensive rats, 8 weeks of continuous medication; format: in vivo, rat; conditions: x ± s, n = 8
Summary of the method: as §1

[3] = Weekly body weight of SHR rats; format: in vivo, rat
Summary of the method: (§2)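 Male and female SHR rats (200-250 g, 8/group) dosed intragastrically once daily for 8 weeks with test compounds at 60 or 120 mg/kg/d or captopril 27 mg/kg; Wistar and SHR controls received distilled water. Body weight and food intake observed during treatment.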

[4] = Weekly food intake of SHR rats; format: in vivo, rat
Summary of the method: as §2

[5] = physchem; conditions: water, thermodynamic from solid
Experimental: (§3) Measuring method: samples are ground to obtain fine powder, target compounds are quantitatively weighed, the weighed compounds are added into purified water, and the solubility of the compounds is investigated by ultrasonics.

[6] = Water solubility test; conditions: purified water, thermodynamic from solid
Experimental: as §3

[7] = 60 mg/kg intragastric single administration, 30 min
[8] = 60 mg/kg intragastric single administration, 60 min
[9] = 60 mg/kg intragastric single administration, 90 min
[10] = 60 mg/kg intragastric single administration, 120 min
[11] = 60 mg/kg intragastric single administration, before administration
[12] = 120 mg/kg intragastric single administration, 30 min
[13] = 120 mg/kg intragastric single administration, 60 min
[14] = 120 mg/kg intragastric single administration, 90 min
[15] = 120 mg/kg intragastric single administration, 120 min
[16] = 120 mg/kg intragastric single administration, before administration
[17] = 60 mg/kg/d intragastric continuous, 1 d, 30 min after administration
[18] = 60 mg/kg/d intragastric continuous, 7 d, 30 min after administration
[19] = 60 mg/kg/d intragastric continuous, 13 d, 30 min after administration
[20] = 60 mg/kg/d intragastric continuous, 19 d, 30 min after administration
[21] = 60 mg/kg/d intragastric continuous, 25 d, 30 min after administration
[22] = 60 mg/kg/d intragastric continuous, 35 d, 30 min after administration
[23] = 60 mg/kg/d intragastric continuous, 49 d, 30 min after administration
[24] = 60 mg/kg/d intragastric continuous, 56 d, 30 min after administration
[25] = 60 mg/kg/d intragastric continuous, before administration
[26] = 120 mg/kg/d intragastric continuous, 1 d, 30 min after administration
[27] = 120 mg/kg/d intragastric continuous, 7 d, 30 min after administration
[28] = 120 mg/kg/d intragastric continuous, 13 d, 30 min after administration
[29] = 120 mg/kg/d intragastric continuous, 19 d, 30 min after administration
[30] = 120 mg/kg/d intragastric continuous, 25 d, 30 min after administration
[31] = 120 mg/kg/d intragastric continuous, 35 d, 30 min after administration
[32] = 120 mg/kg/d intragastric continuous, 49 d, 30 min after administration
[33] = 120 mg/kg/d intragastric continuous, 56 d, 30 min after administration
[34] = 120 mg/kg/d intragastric continuous, before administration
[35] = 60 mg/kg/d intragastric, week 0
[36] = 60 mg/kg/d intragastric, week 1
[37] = 60 mg/kg/d intragastric, week 2
[38] = 60 mg/kg/d intragastric, week 3
[39] = 60 mg/kg/d intragastric, week 4
[40] = 60 mg/kg/d intragastric, week 5
[41] = 60 mg/kg/d intragastric, week 6
[42] = 60 mg/kg/d intragastric, week 7
[43] = 60 mg/kg/d intragastric, week 8
[44] = 120 mg/kg/d intragastric, week 0
[45] = 120 mg/kg/d intragastric, week 1
[46] = 120 mg/kg/d intragastric, week 2
[47] = 120 mg/kg/d intragastric, week 3
[48] = 120 mg/kg/d intragastric, week 4
[49] = 120 mg/kg/d intragastric, week 5
[50] = 120 mg/kg/d intragastric, week 6
[51] = 120 mg/kg/d intragastric, week 7
[52] = 120 mg/kg/d intragastric, week 8

`Cc1nc(C)c(CO[C@H]2C(=O)O[C@H]3O[C@]45C(=O)OC6C[C@@H](C(C)(C)C)C32[C@@]64[C@@H](O)[C@@H]2OC(=O)[C@@H](C)[C@@]25O)nc1C` (stereo partly shown) [BM] showed a Systolic pressure [1, 7] of 156.21 ± 9.68 mmHg, a Systolic pressure [1, 8] of 152.06 ± 9.78 mmHg and a Systolic pressure [1, 9] of 151.74 ± 13.15 mmHg. The Systolic pressure [1, 10] was 152.52 ± 15.06 mmHg, the Systolic pressure [1, 11] was 166.27 ± 14.01 mmHg and the Systolic pressure [1, 12] was 149.04 ± 10.95 mmHg. It also gave a Systolic pressure [1, 13] of 151.58 ± 9.85 mmHg, a Systolic pressure [1, 14] of 153.65 ± 11.04 mmHg and a Systolic pressure [1, 15] of 151.00 ± 9.85 mmHg. It also gave a Systolic pressure [1, 16] of 163.45 ± 15.24 mmHg, a Systolic pressure [2, 17] of 155.25 ± 12.36 mmHg and a Systolic pressure [2, 18] of 154.85 ± 10.49 mmHg. The Systolic pressure [2, 19] was 153.26 ± 12.95 mmHg, the Systolic pressure [2, 20] was 156.74 ± 10.36 mmHg and the Systolic pressure [2, 21] was 154.75 ± 10.39 mmHg. The Systolic pressure [2, 22] was 151.48 ± 10.32 mmHg, the Systolic pressure [2, 23] was 151.17 ± 14.05 mmHg and the Systolic pressure [2, 24] was 154.64 ± 11.42 mmHg. It also gave a Systolic pressure [2, 25] of 166.27 ± 14.01 mmHg, a Systolic pressure [2, 26] of 154.62 ± 5.74 mmHg and a Systolic pressure [2, 27] of 152.31 ± 10.56 mmHg. For the same compound, the Systolic pressure [2, 28] was 151.58 ± 12.06 mmHg, the Systolic pressure [2, 29] was 153.06 ± 10.41 mmHg and the Systolic pressure [2, 30] was 148.54 ± 11.62 mmHg. The Systolic pressure [2, 31] was 149.36 ± 10.75 mmHg, the Systolic pressure [2, 32] was 150.32 ± 9.59 mmHg and the Systolic pressure [2, 33] was 149.78 ± 11.64 mmHg. For the same compound, the Systolic pressure [2, 34] was 163.45 ± 15.24 mmHg, the Body weight [3, 35] was 231.5 g and the Body weight [3, 36] was 236.8 g. The Body weight [3, 37] was 245.7^▴▴ g, the Body weight [3, 38] was 253.4 g and the Body weight [3, 39] was 258.3 g. The Body weight [3, 40] was 263.5^▴ g, the Body weight [3, 41] was 271.3^▴▴ g and the Body weight [3, 42] was 281.6^▴▴ g. For the same compound, the Body weight [3, 43] was 292.5^▴▴ g, the Body weight [3, 44] was 233.4 g and the Body weight [3, 45] was 249.5^▴▴ g. For the same compound, the Body weight [3, 46] was 256.8^▴▴ g, the Body weight [3, 47] was 264.3^▴▴ g and the Body weight [3, 48] was 271.6^▴▴ g. The Body weight [3, 49] was 280.4^▴▴ g, the Body weight [3, 50] was 290.5^▴▴ g and the Body weight [3, 51] was 305.7^▴▴ g. The Body weight [3, 52] was 315.8^▴▴ g, the “Average dairy food intake” value [4, 35] was 18.2 g/day and the “Average dairy food intake” value [4, 36] was 19.1^▴ g/d. The “Average dairy food intake” value [4, 37] was 19.9^▴ g/d, the “Average dairy food intake” value [4, 38] was 20.9^▴▴ g/d and the “Average dairy food intake” value [4, 39] was 21.3^▴▴ g/d. The “Average dairy food intake” value [4, 40] was 22.4^▴▴ g/d, the “Average dairy food intake” value [4, 41] was 23.1^▴▴ g/d and the “Average dairy food intake” value [4, 42] was 24.7^▴▴ g/d. For the same compound, the “Average dairy food intake” value [4, 43] was 25.5^▴▴ g/d, the “Average dairy food intake” value [4, 44] was 18.5 g/day and the “Average dairy food intake” value [4, 45] was 19.9^▴ g/d. For the same compound, the “Average dairy food intake” value [4, 46] was 20.7^▴▴ g/d, the “Average dairy food intake” value [4, 47] was 22.6^▴▴ g/d and the “Average dairy food intake” value [4, 48] was 22.9^▴▴ g/d. The “Average dairy food intake” value [4, 49] was 23.7^▴▴ g/d, the “Average dairy food intake” value [4, 50] was 24.4^▴▴ g/d and the “Average dairy food intake” value [4, 51] was 25.8^▴▴ g/d. For the same compound, the “Average dairy food intake” value [4, 52] was 27.6^▴▴ g/d and the solubility [5] was 250 µg/mL (≈ 448 µM).

With `CC(=O)Oc1ccccc1C(=O)O[C@H]1C(=O)O[C@H]2O[C@]34C(=O)OC5C[C@@H](C(C)(C)C)C21[C@@]53[C@@H](O)[C@@H]1OC(=O)[C@@H](C)[C@@]14O` (stereo partly shown) [BA] the Systolic pressure [1, 7] was 161.36 ± 9.52 mmHg, the Systolic pressure [1, 8] was 159.62 ± 14.25 mmHg and the Systolic pressure [1, 9] was 152.56 ± 11.26 mmHg. For the same compound, the Systolic pressure [1, 10] was 159.87 ± 11.32 mmHg, the Systolic pressure [1, 11] was 165.35 ± 11.62 mmHg and the Systolic pressure [1, 12] was 149.69 ± 11.62 mmHg. It also gave a Systolic pressure [1, 13] of 155.68 ± 17.35 mmHg, a Systolic pressure [1, 14] of 161.30 ± 15.64 mmHg and a Systolic pressure [1, 15] of 158.25 ± 15.61 mmHg. For the same compound, the Systolic pressure [1, 16] was 163.64 ± 10.31 mmHg, the Systolic pressure [2, 17] was 155.29 ± 10.98 mmHg and the Systolic pressure [2, 18] was 158.73 ± 13.82 mmHg. For the same compound, the Systolic pressure [2, 19] was 153.64 ± 9.75 mmHg, the Systolic pressure [2, 20] was 154.85 ± 9.74 mmHg and the Systolic pressure [2, 21] was 151.36 ± 10.58 mmHg. For the same compound, the Systolic pressure [2, 22] was 153.72 ± 13.68 mmHg, the Systolic pressure [2, 23] was 151.70 ± 13.10 mmHg and the Systolic pressure [2, 24] was 153.72 ± 12.54 mmHg. It also gave a Systolic pressure [2, 25] of 165.35 ± 11.62 mmHg, a Systolic pressure [2, 26] of 151.48 ± 9.85 mmHg and a Systolic pressure [2, 27] of 150.95 ± 9.68 mmHg. It also gave a Systolic pressure [2, 28] of 145.30 ± 11.62 mmHg, a Systolic pressure [2, 29] of 142.39 ± 12.49 mmHg and a Systolic pressure [2, 30] of 145.84 ± 11.46 mmHg. The Systolic pressure [2, 31] was 143.67 ± 115.62 mmHg, the Systolic pressure [2, 32] was 140.69 ± 14.72 mmHg and the Systolic pressure [2, 33] was 139.88 ± 13.04 mmHg. The Systolic pressure [2, 34] was 163.64 ± 10.31 mmHg, the Body weight [3, 35] was 228.5 g and the Body weight [3, 36] was 233.6 g. The Body weight [3, 37] was 244.8^▴ g, the Body weight [3, 38] was 251.4 g and the Body weight [3, 39] was 257.3 g. The Body weight [3, 40] was 263.7^▴ g, the Body weight [3, 41] was 269.6^▴ g and the Body weight [3, 42] was 281.8^▴▴ g. The Body weight [3, 43] was 292.8^▴▴ g, the Body weight [3, 44] was 231.6 g and the Body weight [3, 45] was 251.4^▴▴ g. For the same compound, the Body weight [3, 46] was 257.6^▴▴ g, the Body weight [3, 47] was 264.1^▴▴ g and the Body weight [3, 48] was 271.2^▴▴ g. The Body weight [3, 49] was 280.6^▴▴ g, the Body weight [3, 50] was 291.2^▴▴ g and the Body weight [3, 51] was 305.9^▴▴ g. The Body weight [3, 52] was 320.4^▴▴ g, the “Average dairy food intake” value [4, 35] was 17.9 g/day and the “Average dairy food intake” value [4, 36] was 18.6^▴ g/d. The “Average dairy food intake” value [4, 37] was 19.8^▴ g/d, the “Average dairy food intake” value [4, 38] was 19.6^▴ g/d and the “Average dairy food intake” value [4, 39] was 18.9^▴ g/d. The “Average dairy food intake” value [4, 40] was 20.7^▴▴ g/d, the “Average dairy food intake” value [4, 41] was 22.3^▴▴ g/d and the “Average dairy food intake” value [4, 42] was 24.6^▴▴ g/d. For the same compound, the “Average dairy food intake” value [4, 43] was 25.5^▴▴ g/d, the “Average dairy food intake” value [4, 44] was 18.1 g/day and the “Average dairy food intake” value [4, 45] was 19.8^▴ g/d. The “Average dairy food intake” value [4, 46] was 20.1^▴▴ g/d, the “Average dairy food intake” value [4, 47] was 20.8^▴▴ g/d and the “Average dairy food intake” value [4, 48] was 21.6^▴▴ g/d. The “Average dairy food intake” value [4, 49] was 23.0^▴▴ g/d, the “Average dairy food intake” value [4, 50] was 24.5^▴▴ g/d and the “Average dairy food intake” value [4, 51] was 25.9^▴▴ g/d. The “Average dairy food intake” value [4, 52] was 27.8^▴▴ g/d and the solubility [6] was 220 µg/mL (≈ 375 µM).
